Values joined by “and” are separate entries in the source; they are usually repeats but may differ in a detail not shown here. Equal entries are not always repeated. Where two headings read alike, the source gives them in different places. Non-standard residues stand in square brackets, D forms with d. Residues, ends and D or L forms follow the SMILES beside them. NMeW = CN[C@@H](Cc1c[nH]c2ccccc12)C(=O)O; NMeD = CN[C@@H](CC(=O)O)C(=O)O
Biological target: Sushi domains (SD1/2) protein
Assay: Fluorescence polarization (FP) competition assay with AJAP-1probe, calculated Ki
Type: binding
Summary of the method: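 Ki values were derived from IC50s (sigmoidal fits, ≥ triplicate), with probe Kd obtained by saturation titration of SD1/2. Peptides displaced a 25 nM TAMRA-labelled probe; polarization read at 530/580 nm in 1% BSA-containing PBS, pH 7.4, room temperature.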

[1] = Table 11, deep mutational scanning validation variants of AJAP-1WT, read-out: Ki (nM) mean ± SEM
[2] = Table 4, truncation and elongation scans of APP epitope, read-out: Ki (nM) mean ± SEM
[3] = Table 10, deep mutational scanning validation variants of APPWT, read-out: Ki (nM) mean ± SEM
[4] = Table 3, SPOT hit validation and previously reported peptides, read-out: Ki (nM) mean ± SEM
[5] = Table 7, Ala-, D-amino acids and N-methylation scans of APPWT, read-out: Ki (nM) mean ± SEM
[6] = Table 6, elongation and truncation scan of PIANP binding epitope, read-out: Ki (nM) mean ± SEM

CC[C@H](C)[C@H](NC(=O)[C@H](Cc1ccccc1)NC(=O)[C@H](CCC(=O)O)NC(=O)[C@@H](NC(=O)[C@H](CCC(=O)O)NC(C)=O)[C@@H](C)O)C(=O)N[C@@H](C)C(=O)N[C@@H](Cc1c[nH]c2ccccc12)C(=O)NCC(=O)N1CCC[C@H]1C(=O)N[C@@H](Cc1c[nH]cn1)C(=O)NCC(=O)N[C@@H](CC(=O)O)C(=O)N[C@@H](CCC(=O)O)C(=O)N[C@@H](CC(=O)O)C(N)=O [ETEFIAWGPHGDED] (Ac-ETEFIAWGPHGDED-NH2)
Ki [1]: 38 ± 1 nM

CC(=O)N[C@@H](CC(=O)O)C(=O)N[C@H](C(=O)N[C@@H](Cc1c[nH]c2ccccc12)C(=O)N[C@@H](Cc1c[nH]c2ccccc12)C(=O)NCC(=O)NCC(=O)N[C@@H](C)C(=O)N[C@@H](CC(=O)O)C(=O)N[C@H](C(=O)N[C@@H](CC(=O)O)C(=O)N[C@@H](Cc1ccc(O)cc1)C(=O)N[C@@H](C)C(=O)N[C@@H](CC(=O)O)C(N)=O)[C@@H](C)O)C(C)C (Ac-DVWWGGADTDYAD-NH2)
Ki [2]: 6100 ± 307 nM

CC(=O)N[C@@H](CCCCN)C(=O)N[C@@H](CC(=O)O)C(=O)N[C@@H](CC(=O)O)C(=O)N[C@@H](CO)C(=O)N[C@@H](CC(=O)O)C(=O)N[C@H](C(=O)N[C@@H](Cc1c[nH]c2ccccc12)C(=O)N[C@@H](Cc1c[nH]c2ccccc12)C(=O)NCC(=O)NCC(=O)N[C@@H](C)C(=O)N[C@@H](CC(=O)O)C(=O)N[C@H](C(=O)N[C@@H](CC(=O)O)C(N)=O)[C@@H](C)O)C(C)C (Ac-KDDSDVWWGGADTD-NH2)
Ki [3]: 1520 ± 53 nM

CC[C@H](C)[C@H](NC(=O)[C@H](C)NC(C)=O)C(=O)N[C@H](C(=O)N[C@@H](Cc1c[nH]c2ccccc12)C(=O)NCC(=O)N1CCC[C@H]1C(=O)N[C@H](C(=O)N[C@H](C(=O)N[C@@H](CO)C(=O)N[C@@H](CCCNC(=N)N)C(=O)N[C@@H](CCC(=O)O)C(=O)N[C@@H](CC(=O)O)C(=O)NCC(=O)NCC(=O)N[C@@H](CC(=O)O)C(N)=O)C(C)C)[C@@H](C)O)C(C)C (Ac-AIVWGPTVSREDGGD-NH2)
Ki [4]: 637 ± 45 nM

CC[C@H](C)[C@H](NC(=O)[C@H](Cc1ccc(OCc2ccccc2)cc1)NC(=O)[C@H](CC(=O)O)NC(=O)[C@H](CC(=O)O)NC(=O)[C@H](CC(=O)O)NC(=O)[C@H](CCC(=O)O)NC(C)=O)C(=O)N[C@@H](CC(=O)O)C(=O)N[C@@H](Cc1c[nH]c2ccccc12)C(=O)N[C@@H](Cc1ccc(O)cc1)C(=O)N[C@@H](CC(=O)O)C(=O)N[C@@H](CO)C(=O)N[C@@H](CC(=O)O)C(=O)N[C@@H](CC(=O)O)C(=O)N[C@@H](CC(=O)O)C(N)=O [Peptide 33]
Ki (Table 1, affinity maturation, mean ± SEM, n ≥ 3, read-out: Ki): 9.3 ± 0.2 nM | Ki (Table 16, ncAAs incorporated peptides, read-out: Ki (nM) mean ± SEM): 9.3 ± 0.2 nM

CC[C@H](C)[C@H](NC(=O)[C@H](Cc1ccccc1)NC(=O)[C@H](CCC(=O)O)NC(=O)[C@@H](NC(=O)[C@@H](NC(C)=O)C(C)C)[C@@H](C)O)C(=O)N[C@@H](C)C(=O)N[C@@H](Cc1c[nH]c2ccccc12)C(=O)NCC(=O)N1CCC[C@H]1C(=O)N[C@H](C(=O)NCC(=O)N[C@@H](CC(=O)O)C(=O)N[C@@H](CCC(=O)O)C(=O)N[C@@H](CC(=O)O)C(N)=O)[C@@H](C)O [VTEFIAWGPTGDED]
Ki [1]: 67 ± 1 nM

CC[C@H](C)[C@H](NC(=O)[C@H](Cc1ccccc1)NC(=O)[C@H](CCC(=O)O)NC(=O)[C@@H](NC(=O)[C@H](CCC(=O)O)NC(C)=O)[C@@H](C)O)C(=O)N[C@H](C(=O)N[C@@H](Cc1c[nH]c2ccccc12)C(=O)NCC(=O)N1CCC[C@H]1C(=O)N[C@H](C(=O)NCC(=O)N[C@@H](CC(=O)O)C(=O)N[C@@H](CCC(=O)O)C(=O)N[C@@H](CC(=O)O)C(N)=O)[C@@H](C)O)C(C)C [ETEFIVWGPTGDED] (Ac-ETEFIVWGPTGDED-NH2)
Ki [1]: 30 ± 1 nM

CC(=O)N[C@@H](CCC(=O)O)C(=O)N[C@@H](CC(=O)O)C(=O)N(C)[C@@H](CC(=O)O)C(=O)N[C@@H](CO)C(=O)N[C@@H](CC(=O)O)C(=O)N[C@H](C(=O)N[C@@H](Cc1c[nH]c2ccccc12)C(=O)N[C@@H](Cc1c[nH]c2ccccc12)C(=O)NCC(=O)NCC(=O)N[C@@H](C)C(=O)N[C@@H](CC(=O)O)C(=O)N[C@H](C(=O)N[C@@H](CC(=O)O)C(N)=O)[C@@H](C)O)C(C)C (Ac-ED[NMeD]SDVWWGGADTD-NH2)
Ki [5]: 671 ± 27 nM

CC(=O)N[C@@H](C)C(=O)N[C@@H](CC(=O)O)C(=O)N[C@@H](C)C(=O)N[C@@H](CCC(=O)O)C(=O)N[C@@H](CCC(=O)O)C(=O)N[C@@H](CC(=O)O)C(=O)N[C@@H](CC(=O)O)C(=O)N[C@@H](CO)C(=O)N[C@@H](CC(=O)O)C(=O)N[C@H](C(=O)N[C@@H](Cc1c[nH]c2ccccc12)C(=O)N[C@@H](Cc1c[nH]c2ccccc12)C(=O)NCC(=O)NCC(=O)N[C@@H](C)C(N)=O)C(C)C (Ac-ADAEEDDSDVWWGGA-NH2)
Ki [4]: 1530 ± 46 nM

CC(=O)N[C@@H](CCC(=O)O)C(=O)N[C@@H](CC(=O)O)C(=O)N[C@@H](CC(=O)O)C(=O)N[C@@H](CO)C(=O)N[C@@H](CC(=O)O)C(=O)N[C@H](C(=O)N[C@@H](Cc1c[nH]c2ccccc12)C(=O)N[C@@H](Cc1c[nH]c2ccccc12)C(=O)N[C@@H](CC(=O)O)C(=O)NCC(=O)N[C@@H](C)C(=O)N[C@@H](CC(=O)O)C(=O)N[C@H](C(=O)N[C@@H](CC(=O)O)C(N)=O)[C@@H](C)O)C(C)C (Ac-EDDSDVWWDGADTD-NH2)
Ki [3]: 429 ± 7 nM

CC(=O)NCC(=O)NCC(=O)N[C@@H](C)C(=O)N[C@@H](CC(=O)O)C(=O)N[C@H](C(=O)N[C@@H](CC(=O)O)C(=O)N[C@@H](Cc1ccc(O)cc1)C(=O)N[C@@H](C)C(=O)N[C@@H](CC(=O)O)C(N)=O)[C@@H](C)O (Ac-GGADTDYAD-NH2)
Ki [2]: > 62500 nM

CC(=O)N[C@@H](CCC(=O)O)C(=O)N[C@@H](CC(=O)O)C(=O)N[C@@H](CC(=O)O)C(=O)N[C@@H](CO)C(=O)N[C@@H](CC(=O)O)C(=O)N[C@H](C(=O)N(C)[C@@H](Cc1c[nH]c2ccccc12)C(=O)N[C@@H](Cc1c[nH]c2ccccc12)C(=O)NCC(=O)NCC(=O)N[C@@H](C)C(=O)N[C@@H](CC(=O)O)C(=O)N[C@H](C(=O)N[C@@H](CC(=O)O)C(N)=O)[C@@H](C)O)C(C)C [EDDSDV(N-Me-W)WGGADTD] (Ac-EDDSDV[NMeW]WGGADTD-NH2)
Ki [5]: 85600 ± 10100 nM

CC(=O)N[C@@H](CCC(=O)O)C(=O)N[C@@H](CCC(=O)O)C(=O)N[C@@H](CC(=O)O)C(=O)N[C@@H](CC(=O)O)C(=O)N[C@@H](CO)C(=O)N[C@@H](CC(=O)O)C(=O)N[C@H](C(=O)N[C@@H](Cc1c[nH]c2ccccc12)C(=O)N[C@@H](Cc1c[nH]c2ccccc12)C(=O)NCC(=O)NCC(=O)N[C@@H](C)C(=O)N[C@@H](CC(=O)O)C(=O)N[C@H](C(=O)N[C@@H](CC(=O)O)C(=O)N[C@@H](Cc1ccc(O)cc1)C(=O)N[C@@H](C)C(=O)N[C@@H](CC(=O)O)C(N)=O)[C@@H](C)O)C(C)C [Peptide 36] (Ac-EEDDSDVWWGGADTDYAD-NH2)
Ki [4]: 244 ± 13 nM | Ki (Table 4, truncation and elongation scans of APP epitope, listed as EEDDSDVWWGGADTDYAD, read-out: Ki (nM) mean ± SEM): 244 nM and 233 nM

CC[C@H](C)[C@H](NC(=O)[C@H](C)NC(=O)[C@H](Cc1c[nH]c2ccccc12)NC(=O)[C@@H]1CCCN1C(C)=O)C(=O)N[C@H](C(=O)N[C@@H](Cc1c[nH]c2ccccc12)C(=O)NCC(=O)N1CCC[C@H]1C(=O)N[C@H](C(=O)N[C@H](C(N)=O)C(C)C)[C@@H](C)O)C(C)C (Ac-PWAIVWGPTV-NH2)
Ki [6]: 561 ± 21 nM

CC(=O)N[C@@H](CCC(=O)O)C(=O)N[C@@H](CC(=O)O)C(=O)N[C@@H](CC(=O)O)C(=O)N[C@@H](CO)C(=O)N[C@@H](CC(=O)O)C(=O)N[C@H](C(=O)N[C@@H](Cc1c[nH]c2ccccc12)C(=O)N[C@@H](Cc1c[nH]c2ccccc12)C(=O)NCC(=O)NCC(=O)N[C@@H](Cc1ccc(O)cc1)C(=O)N[C@@H](CC(=O)O)C(=O)N[C@H](C(=O)N[C@@H](CC(=O)O)C(N)=O)[C@@H](C)O)C(C)C (Ac-EDDSDVWWGGYDTD-NH2)
Ki [3]: 255 ± 11 nM

CC(=O)N[C@@H](CCC(=O)O)C(=O)N[C@@H](CCC(=O)O)C(=O)N[C@@H](CC(=O)O)C(=O)N[C@@H](CC(=O)O)C(=O)N[C@@H](CO)C(=O)N[C@@H](CC(=O)O)C(=O)N[C@H](C(=O)N[C@@H](Cc1c[nH]c2ccccc12)C(=O)N[C@@H](Cc1c[nH]c2ccccc12)C(=O)NCC(=O)NCC(=O)N[C@@H](C)C(=O)N[C@@H](CC(=O)O)C(=O)N[C@H](C(=O)N[C@@H](CC(=O)O)C(=O)N[C@@H](Cc1ccc(O)cc1)C(=O)N[C@@H](C)C(=O)N[C@@H](CC(=O)O)C(=O)NCC(=O)NCC(=O)N[C@@H](CCC(=O)O)C(=O)N[C@@H](CC(=O)O)C(=O)N[C@@H](CCCCN)C(N)=O)[C@@H](C)O)C(C)C (Ac-EEDDSDVWWGGADTDYADGGEDK-NH2)
Ki [2]: 392 ± 14 nM

CC[C@H](C)[C@H](NC(=O)[C@H](Cc1ccccc1)NC(=O)[C@H](CCC(=O)O)NC(=O)[C@@H](NC(=O)[C@H](CCC(=O)O)NC(C)=O)[C@@H](C)O)C(=O)N[C@@H](C)C(=O)N[C@@H](Cc1c[nH]c2ccccc12)C(=O)N[C@@H](Cc1ccc(O)cc1)C(=O)N1CCC[C@H]1C(=O)N[C@@H](C)C(=O)N[C@@H](CC(=O)O)C(=O)N[C@H](C(=O)N[C@@H](CC(=O)O)C(N)=O)[C@@H](C)O (Ac-ETEFIAWYPADTD-NH2)
Ki (Table 13, peptides for affinity maturation, read-out: Ki (nM) mean ± SEM): 190 ± 3 nM

CC(=O)N[C@@H](CCC(=O)O)C(=O)N[C@@H](CC(=O)O)C(=O)N[C@@H](CC(=O)O)C(=O)N[C@@H](CO)C(=O)N[C@@H](CC(=O)O)C(=O)N[C@H](C(=O)N[C@@H](Cc1c[nH]c2ccccc12)C(=O)N[C@@H](Cc1c[nH]c2ccccc12)C(=O)NCC(=O)NCC(=O)N[C@@H](C)C(=O)N[C@@H](CC(=O)O)C(=O)N[C@@H](CCC(=O)O)C(=O)N[C@@H](CC(=O)O)C(N)=O)C(C)C [EDDSDVWWGGADED] (Ac-EDDSDVWWGGADED-NH2)
Ki [3]: 337 ± 10 nM

CC(=O)N[C@H](C(=O)N[C@@H](Cc1c[nH]c2ccccc12)C(=O)NCC(=O)N1CCC[C@H]1C(=O)N[C@H](C(=O)N[C@H](C(=O)N[C@@H](CO)C(=O)N[C@@H](CCCNC(=N)N)C(=O)N[C@@H](CCC(=O)O)C(=O)N[C@@H](CC(=O)O)C(=O)NCC(N)=O)C(C)C)[C@@H](C)O)C(C)C (Ac-VWGPTVSREDG-NH2)
Ki [6]: 1740 ± 62 nM
